Results as given in article PMC10384610, “Combining nonsense mutation suppression therapy with nonsense-mediated decay inhibition in neurofibromatosis type 1” (Molecular Therapy. Nucleic Acids, 2023).
Where two headings read alike, the source gives them in different places.

How the values were obtained:
[1] = system: NF1^NS/+ Schwann cells; assay: Western blot of neurofibromin and p-ERK in NF1^NS/+ Schwann cells treated with nonsense suppression drugs; format: cell-based, minipig; conditions: for neurofibromin increase in NF1^NS/+ Schwann cell cultures: multiple concentrations (Table S2), 24, 48 or 72 h, 3 biological replicates
Description: (§1) Schwann cells were isolated as previously described.[9]^,[18] Sciatic nerve or cutaneous neurofibroma were biopsied from WT or NF1^R1947/+ minipigs and transported in Dulbecco’s Modified Eagle’s Medium (DMEM; Thermo) containing 10% fetal bovine serum (FBS; Thermo) and 1% Antibiotic/Antimycotic (AA; Thermo). In a laminar flow hood, specimens were rinsed in 70% ethanol and phosphate-buffered saline (PBS; VWR 16750-078) by briefly dipping into each solution 10 times. Tissues were minced and incubated at 37°C, 5% CO2 in dissociation media containing DMEM with 10% FBS, 1% AA, 1x collagenase A (Thermo), and 1x dispase II (Roche) overnight in a Petri dish, then transferred to a conical and centrifuged at 270 × g for 5 min. Cells were plated onto a poly-L-lysine (0.05 mg/mL) and laminin-coated (10 μg/mL) six-well plate and cultured in complete media containing DMEM with high-glucose (GIBCO) supplemented with 10% FBS (GIBCO), forskolin (2 μM) (Calbiochem), 1% N2 supplement (Thermo), recombinant human neuregulin-b1 (NRG1) (10 ng/mL) (R&D Systems), and 1% AA. Media was replaced every 2 days. Schwann cells were separated from contaminating fibroblasts via magnetic cell selection, as described.[9]^,[18] Purified Schwann cells were expanded and stored in liquid nitrogen at low passage and vials were thawed immediately prior to use in experiments to maintain low-passage cells.
(§2) For extraction of protein from cells, snap frozen pellets were briefly thawed on ice and resuspended in RIPA buffer (Sigma) containing protease (Sigma) and phosphatase inhibitors (Sigma), then vortexed at 2,000 rpm at 4°C for 20 min, then centrifuged at 4°C for 15 min at 20,000 × g. For extraction of protein from tissues, snap frozen tissues were thawed briefly on ice, then 50 to 80 mg of tissue was transferred to a 2-mL microtube containing ceramic homogenizers (Agilent Technologies) and homogenized using a Bead Blaster (Benchmark Scientific) at 4,260 rpm, 7 m/s linear speed, 3 cycles of 30 s at 4°C. Homogenates were centrifuged at 13,000 rpm for 3 min at 4°C, then supernatants were transferred to new tubes and sonicated at an amplitude of 20A for 10 s at 4°C, vortexed at 2,000 rpm at 4°C for 20 min, then centrifuged at 20,000 × g at 4°C for 15 min.
(§3) Protein lysates from cells or tissues were quantified using a BCA assay (Thermo). Twenty to 30 μg of protein was denatured at 95°C for 5 min and separated by electrophoresis using SDS on 1.5-mm NuPAGE 4–12% Bis-Tris protein gels (Thermo). Protein was transferred to Immun-Blot PVDF Membrane (Bio-Rad) overnight (16–20 h) at 18 V, 4°C. Membranes were cut according to target molecular weights and blocked at room temperature (RT) for 1 h using 5% blocking grade buffer (Bio-Rad) in TBST (Tris-buffered saline, 0.1% Tween 20) (Sigma). Membranes were incubated with primary antibody overnight at 4°C and washed with TBST three times for 5 min at RT, then incubated with horseradish peroxidase-conjugated secondary antibody for 1 h at RT and washed again as described above. All washes and incubations were performed on a rocking platform. Blots were developed with the WesternBright Quantum Kit (Advansta). Bands were imaged using the Li-Cor Odyssey Fc Imaging System, quantified by densitometry, and normalized to HSP90.
Ataluren (MedChem Express) was reconstituted in sterile dimethyl sulfoxide (DMSO) to a stock concentration of 10 mM and stored at −80°C. […]

[2] = system: NF1^NS/− Schwann cells; assay: Western blot of neurofibromin and p-ERK in NF1^NS/− Schwann cells (LOH) treated with nonsense suppression drugs; format: cell-based, minipig; conditions: concentrations of Table S2, 24, 48 or 72 h
Description: as §1, §2, §3
Ataluren (MedChem Express) was reconstituted in sterile dimethyl sulfoxide (DMSO) to a stock concentration of 10 mM and stored at −80°C. Cells were seeded in complete media at a density of 0.3 × 10^6 cells/plate in 10-cm plates. Media was changed 24 h later to complete media without AA and containing vehicle or drugs at indicated concentrations. Cells were harvested 24, 48, and 72 h after drug treatment and divided for protein and/or RNA extraction.

[3] = in vivo; conditions: sc
Description: Human equivalent doses (HED) were determined by allometric scaling using the standard conversion coefficient (Km), where Km = 1.1 for minipig and HED determination. Consequently, a 7.5-mg/kg human equivalent dose was 8.25 mg/kg. The required volume of drug for each animal was then based on individual body weight and determined on the day of administration.
(§4) Tissue samples (skin, sciatic nerve, optic nerve, and cortex) were collected from each animal at the same approximate locations and divided for analysis.
Plasma isolations were performed as described in a previous study.[10] Briefly, serial whole blood samples (1.5 mL) were collected from the jugular vein into lithium heparin vacutainer tubes. Samples were immediately transferred to a 1.7-mL microfuge tube and centrifuged at 2,000 × g for 10 min at 4°C. Supernatant (plasma) was transferred to a cryovial and stored at −80°C until analysis. […] Assay analytical measurement ranged from 0.2 to 12 mg/L, and samples with results higher than 12 mg/L were diluted appropriately and re-analyzed. Within-run precision is 0.3% CV, between-day precision is 0.4% CV, and accuracy is 99.8% (correlation coefficient). For each tissue type (skin, sciatic nerve, optic nerve, and cerebral cortex), samples were analyzed commercially using liquid chromatography with tandem mass spectrometry (LC-MS/MS; BioAgilytix, San Diego, CA). […] Standard curves and quality controls were prepared with untreated tissues. Tissues were prepared with a homogenization solution containing collagenase. […] The LC-MS/MS system consisted of a Waters Acquity UPLC (Milford, MA) coupled with a Waters Xevo TQ-S Micro Triple Quad mass spectrometer (Milford, MA). Mass transition data were acquired in electrospray positive ion (ESI^+) mode and captured using MassLynx 4.1 (Waters, Milford, MA).
Pharmacokinetic parameters and measures of systemic exposure included area under the concentration-time curve (AUC; linear up, log down), maximum concentration (Cmax), time to Cmax (Tmax), and half-life (t1/2).

[4] = NF1 minipig (NF1^R1947*/+), in vivo, 30 min
Description: Tissues were prepared with a homogenization solution containing collagenase.

[5] = system: neurofibromin and p-ERK protein levels; assay: Pharmacodynamics: western blot of neurofibromin and p-ERK in NF1 minipig tissues; format: in vivo; conditions: treated (n = 5) vs untreated controls (n = 4), sc 8.25 mg/kg daily 14 days
Text: as §4

[6] = Tolerability and renal parameters in NF1 minipigs; format: in vivo, minipig; conditions: sc 8.25 mg/kg once daily for 14 days
[7] = murine models of DMD and CF, subcutaneous once daily 34 mg/kg, suppresses PTCs; cited from earlier work
[8] = human patients with DMD or CF, once daily intravenous infusion 7.5–10 mg/kg; cited from earlier work
[9] = design: method as in PMID 33978635; conditions: NF1 minipigs compared with WT minipigs; cited from earlier work
[10] = system: NF1^R1947∗ mutation dual luciferase reporter in NF1^NS/− Schwann cells; assay: Dual luciferase reporter (DLR) readthrough assay in minipig Schwann cells; format: cell-based; conditions: minipig NF1^NS/− cNF Schwann cells, 48 h, normalized to Renilla
Text: (§5) The NF1^R1497X DLR plasmid was kindly provided by David Bedwell at University of Alabama. The Renilla-NF1-R1947X-Firefly insert contains 30 nucleotides surrounding the premature termination codon in NF1-R1947X inserted between the Renilla and Firefly genes. The 30-base pair readthrough cassette contains NF1^R1497X (G TCGACGGATGCCAAATGACAAAGAGTTGGATCC). Plasmids were amplified in DH5a E. coli using ampicillin selection and purified using a Qiagen miniprep kit, according to the manufacturer’s protocol. To produce stable cell cultures, we used Gateway cloning to transfer the DLR insert to a hygromycin-resistant PiggyBac Sleeping Beauty (PBSB) transposon vector. Briefly, a GBlock containing the DLR insert sequence and attB sites was cloned into the pDONR221 vector using BP clonase to produce pENTR-Renilla-NF1-R1947X-Firefly. This was cloned into the PBSB vector using LR clonase to produce pPBSB-CG-Renilla-NF1-R1947X-Firefly-PGK-Hygro, which was confirmed by DNA sequencing. Schwann cells were grown to 80% confluency and transfected with the PBSB transposon and PB7 (PiggyBac transposase) (5 μg each/ 1million cells) using the Neon electroporation system (Invitrogen #MPK10096). […] The DLR assay system (Promega) was used to detect readthrough, according to the manufacturer’s instructions. Luminescence was measured using the Cytation 5 plate reader. […]

[11] = system: NF1^R1947∗ mutation dual luciferase reporter in iPNF95.6 cells; assay: Dual luciferase reporter (DLR) readthrough assay in human Schwann cells; format: cell-based; conditions: human Schwann cells iPNF95.6, 48 h, normalized to Renilla
Text: as §5

[12] = NF1^NS/+ Schwann cells, 100 μg/mL, 48 h

## CNC(C)C1CCC(N)C(OC2C(N)CC(N)C(OC3OCC(C)(O)C(NC)C3O)C2O)O1 (centres unmarked) [gentamicin]
[1]; NF1^NS/+ Schwann cells, 250 or 500 μg/mL, 48 h, not replicated in other cultures
  neurofibromin, dose trend: linear increase in neurofibromin at 48 h in one replicate
[1]
  neurofibromin increase in NF1^NS/+ Schwann cell cultures: not consistent between replicates or did not exhibit a dose- or time-dependent increase
[2]
  nonsense suppression through expression of neurofibromin: no indication of nonsense suppression through expression of neurofibromin
  reduction in p-ERK: not a corresponding reduction in p-ERK
[3]; NF1 minipig, 8.25 mg/kg, Cmax
  Cmax: 38000 ng/mL
[3]; NF1 minipig, 8.25 mg/kg, t1/2
  half-life: 1.82 h
[3]; Ossabaw, minipig, 8.25 mg/kg, mean Cmax
  Cmax: 38000 ng/mL
[3]; Ossabaw, minipig, 8.25 mg/kg, target Cmax reached
  Cmax: 40000 ng/mL
[3]; minipig
  changes in PK parameters after 14 days: no significant changes in PK parameters
[4]
  difference of mean tissue concentrations from cortex (lowest) to sciatic nerve (highest): up to 8 fold
[5]
  neurofibromin protein expression in other tissues (cortex, sciatic nerve): no significant change
  p-ERK downregulation in tissues (optic nerve, cortex, sciatic nerve, skin): not significant in any tissues
[5]; p = 0.01
  neurofibromin protein expression in optic nerve tissue: higher
[6]
  tolerability, renal parameters including serum creatinine and blood urea nitrogen: well tolerated with no significant changes in renal parameters
[7]
  peak plasma concentration (Cmax): 40000 to 60000 ng/mL
[8]
  Cmax: 20000 to 40000 ng/mL

## Cn1cnc2c(F)c(Nc3ccc(Br)cc3Cl)c(C(=O)NOCCO)cc21 [selumetinib]
[9]
  concentration in the brain: reaches higher concentrations in the brain of NF1 minipigs compared with WT minipigs

## CN[C@@H]1[C@@H](O)[C@@H](O[C@@H]2[C@@H](O)[C@H](O[C@H]3O[C@H]([C@@H](C)O)[C@@H](O)[C@H](O)[C@H]3N)[C@@H](N)C[C@H]2N)OC[C@]1(C)O [G418]
[1]; [12]
  neurofibromin: increased in all three replicates
  p-ERK: paradoxically increased
[1]
  neurofibromin increase in NF1^NS/+ Schwann cell cultures: not consistent between replicates or did not exhibit a dose- or time-dependent increase
[2]
  nonsense suppression through expression of neurofibromin: no indication of nonsense suppression through expression of neurofibromin
  reduction in p-ERK: not a corresponding reduction in p-ERK
[10]
  firefly luciferase activity compared with vehicle-treated cells: significant and dose-dependent increase
[11]
  firefly luciferase activity compared with vehicle-treated cells: significant and dose-dependent increase

## O=C(O)c1cccc(-c2noc(-c3ccccc3F)n2)c1 [ataluren]
[2]
  nonsense suppression through expression of neurofibromin: no indication of nonsense suppression through expression of neurofibromin
  reduction in p-ERK: not a corresponding reduction in p-ERK
